# Experimental data: patent US6007834A (priority 1997, dated 1999)
# Experiments:
# nasal mucosa [1] = conditions: in vivo
# [2] = cited from earlier work
# [3] = Blood plasma melatonin concentrations and pharmacokinetics in healthy male volunteers, by radioimmunoassay (cross-over study); format: in vivo, human; conditions: for Tmax: human, plasma
# Protocol: An open randomized, four treatment (treatments A, B, C and D below), cross-over study involving 8 healthy male volunteers was carried out. Before drug administration, the subjects were fasted overnight for at least 10 hours. The administered formulations were as follows:
# A: 100 μl water, intranasal (placebo);
# nasal mucosa [4] = conditions: propylene glycol in place of ethanol; cited from earlier work
smiles,measurement,setting,value
OCC(O)CO [glycerol],toxicity towards the epithelial membrane,epithelial membrane,does not exert toxicity towards the epithelial membrane
same,irritation of the nasal mucosa,nasal mucosa [1],does not lead to irritation of the nasal mucosa
"COc1ccc2[nH]cc(CCNC(C)=O)c2c1 [melatonin, N-acetyl-5-methoxytryptamine]",solubility in water,[2],low solubility
same,"Cmax, times higher than that resulting from the oral dose",[3]; 0.2 mg nasal vs 2.5 mg oral,about 5 times
same,"amount of melatonin absorbed, 0.2 mg nasal dose vs 2.5 mg oral dose",[3]; 0.2 mg nasal vs 2.5 mg oral,About the same amount
same,"amount of melatonin absorbed, 0.4 mg nasal dose vs 0.2 mg nasal dose",[3]; 0.4 mg nasal vs 0.2 mg nasal,proportional
same,"Cmax, times higher than that resulting from the oral dose",[3]; 0.4 mg nasal vs 2.5 mg oral,~11 times
same,dose proportionality of peak plasma concentrations (Cmax),[3]; 0.2 and 0.4 mg nasal doses,proportional
same,Tmax,"[3]; po, 2.5 mg",1.5 h
same,Tmax,[3]; 0.2 and 0.4 mg nasal doses,< 0.167 h
same,rate of absorption,[3]; nasally administered,absorbed extremely rapidly
CC(O)CO (stereo not drawn) [propylene glycol],toxicity to the nasal mucosa,nasal mucosa [4],adversely affects the nasal mucosa
